System: human iPS cell line 201B7
Assay: Quantitative real-time PCR analysis of germ layer marker genes in suspension culture of human iPS cell line 201B7
Format: cell-based
Conditions: WNT inhibitor = IWR-1-endo 20 μM, PKCβ inhibitor = GF109203X 3 μM
[1] = day 10 of suspension culture, compared with adherent culture (Reference Example 1)

Protocol: Human iPS cell line 201B7 after adherent culture in the same manner as in Reference Example 1 was treated with Accutase for 5 minutes to be detached from the culture surface, and the cells were dispersed into a single state by pipetting. The cells were suspended in StemFit (registered trademark) AK02N medium containing Y-27632 at a final concentration of 10 μM, and some of the cells were stained with trypan blue, followed by measurement of the viable cell count. A cell suspension was prepared using StemFit (registered trademark) AK02N medium containing Y-27632 at a final concentration of 10 μM such that the cell suspension included 2×10^5 cells per 1 mL. The cell suspension in an amount of 1 mL was seeded per well in a 12-well plate for suspension culture (Sumitomo Bakelite Co., Ltd.). The plate seeded with cells was rotated on a rotary shaker at a speed of 98 rpm along a horizontal plane in a circle with a rotation width (diameter) of 25 mm, during which the suspension culture was performed at 37° C. in a 5% CO2 environment.
The day when the cells were seeded was defined as day 0 of culture, passage was performed on day 5 of culture, and suspension culture was performed until day 10 of culture. Medium exchange was carried out every day. As for the method of medium exchange, the entire amount of the medium containing cell masses was collected into a centrifuge tube, and the tube was allowed to stand for about 5 minutes, thereby settling the cell masses. Then, the culture supernatant was removed, and the residue was gently resuspended in StemFit (registered trademark) AK02N medium, and returned to the original well.
Upon medium exchange, Y-27632 was added to the medium at a final concentration of 5 μM on days 1 and 6 of culture, and Y-27632 was added to the medium at a final concentration of 2 μM on days 2 and 7 of culture. On day 5 of culture, the cell masses and culture supernatant were collected from the wells into a centrifuge tube and allowed to stand for about 5 minutes, thereby settling the cell masses. Then, the culture supernatant was removed.
After adding 1 mL of Accutase to the cell masses, the cell masses were treated at 37° C. for 10 minutes and then dispersed into a single-cell state by pipetting. The cells were suspended in StemFit (registered trademark) AK02N medium containing Y-27632 at a final concentration of 10 μM, and some of the cells were stained with trypan blue, followed by measurement of the viable cell count. A cell suspension was prepared using StemFit (registered trademark) AK02N medium containing Y-27632 at a final concentration of 10 μM such that the cell suspension included 2×10^5 cells per 1 mL. Then, cell seeding was performed in the same manner as in the case of day 0 to continue the suspension culture.
Suspension culture was performed in the same manner as in Reference Example 2, except that IWR-1-endo was added as a WNT inhibitor at a final concentration of 20 μM to the seeding medium and the medium exchanged for new medium for suspension culture.

Structure (SMILES): O=C(Nc1cccc2cccnc12)c1ccc(N2C(=O)[C@@H]3[C@H](C2=O)[C@@H]2C=C[C@H]3C2)cc1 [IWR-1-endo, 4-(1,3,3a,4,7,7a-hexahydro-1,3-dioxo-4,7-methano-2H-isoindole-2-yl)-N-8-quinolinyl-benzamide]
- expression level of PAX6 (ectodermal marker gene) [1]: greater than that in Reference Example 1
- expression level of SOX17 (endodermal marker gene) [1]: suppressed to the expression levels acceptable for the pluripotent stem cells as with Reference Example 1
- expression level of TBXT (mesodermal marker gene) [1]: suppressed to the expression levels acceptable for the pluripotent stem cells as with Reference Example 1
- spontaneous differentiation into ectoderm (suspension culture): weak suppressive effect
- spontaneous differentiation into mesoderm and endoderm (suspension culture): can effectively suppress

Reference: patent US20240247236A1, “METHOD FOR PRODUCING PLURIPOTENT STEM CELLS” (KANEKA CORPORATION, priority 2021, published 2024)
